Data from US20030153538A1, “Antitumor agent” (The Nisshin OilliO, Ltd., priority 2000, published 2003).

Experiments:
B-16 melanoma cells = experiment: Tests for tumor cell-proliferation-inhibitory effect and tumor cell-extinction (cell growth rate from viable cell count); assay type: cell-based; conditions: viable cell count vs control on 6th day
Protocol: The tumor cell-proliferation-inhibitory effect and the tumor cell-killing or extinction effect can be determined according to the following method using B-16 melanoma cells.
More specifically, B-16 melanoma cells are inoculated in each well of a 6-well plate in a desired amount, followed by allowing the plate to stand at 37° C. and 5% carbon dioxide concentration to thus cultivate the cells, adding a sample solution to be tested (maslinic acid, erythrodiol, ursolic acid, uvaol, betulinic acid, betulin and physiologically acceptable salts thereof or derivatives thereof) to each well in an amount sufficient for achieving a desired concentration, on the next day or after 5 days from the initiation of the cultivation, determination of viable cell count on the 6th day after the initiation of the cultivation and calculation of the cell growth rate based on the viable cell count to thus evaluate the tumor cell-proliferation-inhibitory effect and the tumor cell-killing effect.
Tests for determining the tumor cell-proliferation-inhibitory effect and the tumor cell-killing effect were conducted according to the following method. To a 6-well plate, a culture medium was dispensed in an amount of 2 mL/well, B-16 melanoma cells were then inoculated in a desired quantity and thereafter the melanoma cells were cultivated by allowing the plate or the culture medium to stand at 37° C. and a carbon dioxide concentration of 5%. On the following day, a test sample solution prepared was added to and admixed with the content of each well to a desired concentration and the cultivation of the melanoma cells was continued. The culture medium was then exchanged on the 5th day from the initiation of the cultivation and the test sample solution was again added to each well. On the next day, the culture medium was removed to recover the cultivated melanoma cells, followed by washing the cells with PBS (phosphate buffered saline), determination of the viable cell count, and then calculation of the cell growth rate according to the following equation 1. The tumor cell-proliferation-inhibitory effect and the tumor cell-killing effect of each test sample were evaluated on the basis of the cell growth rate thus determined.
Cell Growth Rate (%)=(A/B)×100
As comparative examples, oleanolic acid, β-amyrin, α-amyrin and lupeol were added to the culture medium to thus determine and evaluate the cell growth rate by the same method used above.

B16 melanoma cells = experiment: Test for malignant melanoma metastasis-inhibitory effect (lung metastasis after i.v. injection of B16 melanoma cells); assay type: in vivo, Whister female rats; conditions: 100 mg/body wt. (kg), Oral Adm., every other day; lung lesions on 15th day; rats
Protocol: The tumor cell-metastasis-inhibitory effect can be evaluated according to, for instance, the malignant melanoma metastasis-inhibitory test. More specifically, a suspension of B16 melanoma cells prepared in advance is intravenously injected into Whister female rats, cotton seed oil in which each test substance is dissolved in a predetermined concentration is intraperitoneally administered through injection or orally administered using a sonde, every second day starting from 2nd day after the intravenous injection of the suspension. In this connection, only cotton seed oil is administered to the control group of animals. The lungs are extracted from these animals on the 15th day after the injection of the B16 melanoma cells, the lungs are examined to determine the number of cancer lesions thus metastasized to thus calculate the rate of metastasis-inhibition. The tumor cell-metastasis-inhibitory effect of each test sample is evaluated on the basis of the resulting rate of metastasis-inhibition.
Tests for evaluating the malignant melanoma metastasis-inhibitory effect of each test sample were conducted according to the following method. Whister female rats (6-week-old; average body weight: 160 g) were preliminarily bred with a powdery feed preparation having a composition of AIN-93 for one week, these animals were divided into 5 groups (8 animals per group) so as to equalize the average body weight and then a previously prepared suspension of B16 melanoma cells was intravenously injected into each rat. Subsequently, these animals were bred with a powdery feed preparation having a composition of AIN-93 and cotton seed oil in which each of maslinic acid, erythrodiol, ursolic acid, uvaol, betulinic acid, betulin, compounds of Synthetic Examples 1 and 2, or oleanolic acid had been dissolved in a predetermined concentration was intraperitoneally injected into each animal or orally administered thereto using a sonde, every other day starting from the 2nd day after the injection of the B 16 melanoma cells. In this connection, only cotton seed oil was administered to the control group. On the 15th day after the injection of the B 16 melanoma cells, the lung of each animal was taken out, the lungs were examined to determine the number of cancer lesions thus metastasized and to thus calculate the rate of metastasis-inhibition in accordance with the following equation 2. The tumor cell-metastasis-inhibitory effect of each test sample could be evaluated on the basis of the resulting rate of metastasis-inhibition.
Rate of Metastasis-Inhibition (%)=[(D−C)/D]×100
Wherein C: Average number of cancer lesions metastasized observed in each animal group; and D: average number of cancer lesions metastasized observed in the control group.
Maslinic acid, erythrodiol, ursolic acid, uvaol, betulinic acid, betulin and physiologically acceptable salts thereof or derivatives thereof as well as cotton seed oil as the control were inspected for the rate of metastasis-inhibition (RMI) using the dose and administration methods specified in the following Table 2. In addition, the same procedures used above were repeated except for using oleanolic acid as a comparative sample to thus evaluate the rate of metastasis-inhibition (RMI) thereof.

Compound: CCOC(=O)[C@]12CCC(C)(C)C[C@H]1C1=CC[C@@H]3[C@@]4(C)C[C@@H](O)[C@H](O)C(C)(C)[C@@H]4CC[C@@]3(C)[C@]1(C)CC2 [Comp. Of Synthetic Ex. 1, maslinic acid ethyl ester]
- Cell Growth Rate (B-16 melanoma cells; 5 ppm): 73%
- Cell Growth Rate (B-16 melanoma cells; 10 ppm): 49%
- Cell Growth Rate (B-16 melanoma cells; 15 ppm): 18%
- Cell Growth Rate (B-16 melanoma cells; 20 ppm): 0%
- Cell Growth Rate (B-16 melanoma cells; 25 ppm): 0%
- RMI (rate of metastasis-inhibition) (B16 melanoma cells): 77.6%
